According to ChEMBL document CHEMBL3885861, “Open TG-GATES”:

Organism: Rattus norvegicus
Experiment: Open TG-GATES - Regimen: Single
Format: toxicity, organism-based, Sprague-Dawley
Parameters: regimen Single, gender Male, age 6 weeks
Conditions: in vivo, po, 300 mg/kg, route gavage, dose level Low; for APTT / Bas / Eos / Fbg / Hb / Ht / Lym / MCH / MCHC / MCV / Mono / Neu / PT / Plat / RBC / Ret / WBC: tissue Blood; for KIDNEY_L / KIDNEY_R / KIDNEY_TOTAL: tissue Kidney; for LIVER: tissue Liver; for A/G / ALP / ALT / AST / BUN / CRE / Ca / Cl / DBIL / GLC / IP / K / LDH / Na / PL / RALB / TBIL / TC / TG / TP / gamma-GTP: tissue Plasma

**Q.** What does the source list for `CCN1CCCC1CNC(=O)c1cc(S(N)(=O)=O)ccc1OC` (configuration not stated) [SULPIRIDE]?
**A.** TERMINAL_BW (3 h): 202.3 g; APTT (3 h): 16.9 s; Bas (3 h): 0%; Eos (3 h): 0.8%; Fbg (3 h): 268.2 mg/dL; Hb (3 h): 12.9 g/dL; Ht (3 h): 40.1%; Lym (3 h): 83%; MCH (3 h): 20.5 pg; MCHC (3 h): 32.3%; MCV (3 h): 63.3 fL; Mono (3 h): 2.6%; Neu (3 h): 12.6%; PT (3 h): 13.5 s; Plat (3 h): 123.5 x10_4/uL; RBC (3 h): 633 x10_4/ul; Ret (3 h): 8.1%; WBC (3 h): 80.2 x10_2/uL; KIDNEY_L (3 h): 0.9 g; KIDNEY_R (3 h): 0.9 g; KIDNEY_TOTAL (3 h): 1.9 g; LIVER (3 h): 9.4 g; A/G (3 h): 0.9; ALP (3 h): 1455.4 IU/L; ALT (3 h): 35.6 IU/L; AST (3 h): 72.8 IU/L; BUN (3 h): 9.8 mg/dL; CRE (3 h): 0.2 mg/dL; Ca (3 h): 11.1 mg/dL; Cl (3 h): 105.8 meq/L; DBIL (3 h): 0.004 mg/dL; GLC (3 h): 173 mg/dL; IP (3 h): 8.2 mg/dL; K (3 h): 4.2 meq/L; LDH (3 h): 124.4 IU/L; Na (3 h): 141.6 meq/L; PL (3 h): 143.4 mg/dL; RALB (3 h): 2.5 g/dL; TBIL (3 h): 0.062 mg/dL; TC (3 h): 77.8 mg/dL; TG (3 h): 74.2 mg/dL; TP (3 h): 5.2 g/dL; gamma-GTP (3 h): 1.6 IU/L; TERMINAL_BW (6 h): 199.9 g; APTT (6 h): 16.7 s; Bas (6 h): 0%; Eos (6 h): 1%; Fbg (6 h): 287.4 mg/dL; Hb (6 h): 13.1 g/dL; Ht (6 h): 41.1%; Lym (6 h): 78%; MCH (6 h): 20.5 pg; MCHC (6 h): 31.9%; MCV (6 h): 64.2 fL; Mono (6 h): 2.8%; Neu (6 h): 17.4%; PT (6 h): 13.5 s; Plat (6 h): 122.9 x10_4/uL; RBC (6 h): 641.2 x10_4/ul; Ret (6 h): 8.4%; WBC (6 h): 95.5 x10_2/uL; KIDNEY_L (6 h): 0.9 g; KIDNEY_R (6 h): 0.9 g; KIDNEY_TOTAL (6 h): 1.8 g; LIVER (6 h): 8.9 g; A/G (6 h): 0.9; ALP (6 h): 1332.4 IU/L; ALT (6 h): 36.4 IU/L; AST (6 h): 68.4 IU/L; BUN (6 h): 9.6 mg/dL; CRE (6 h): 0.2 mg/dL; Ca (6 h): 11 mg/dL; Cl (6 h): 104.8 meq/L; DBIL (6 h): 0.01 mg/dL; GLC (6 h): 179.4 mg/dL; IP (6 h): 9.4 mg/dL; K (6 h): 4.3 meq/L; LDH (6 h): 125.8 IU/L; Na (6 h): 141.2 meq/L; PL (6 h): 137.6 mg/dL; RALB (6 h): 2.5 g/dL; TBIL (6 h): 0.074 mg/dL; TC (6 h): 75.4 mg/dL; TG (6 h): 59 mg/dL; TP (6 h): 5.2 g/dL; gamma-GTP (6 h): 1.2 IU/L; TERMINAL_BW (9 h): 198.2 g; APTT (9 h): 16.3 s; Bas (9 h): 0.2%; Eos (9 h): 0.8%; Fbg (9 h): 287.2 mg/dL; Hb (9 h): 13.3 g/dL; Ht (9 h): 41%; Lym (9 h): 77.4%; MCH (9 h): 20.6 pg; MCHC (9 h): 32.3%; MCV (9 h): 63.7 fL; Mono (9 h): 2.4%; Neu (9 h): 19%; PT (9 h): 13.4 s; Plat (9 h): 129.5 x10_4/uL; RBC (9 h): 644.4 x10_4/ul; Ret (9 h): 7.6%; WBC (9 h): 83.6 x10_2/uL; KIDNEY_L (9 h): 0.9 g; KIDNEY_R (9 h): 0.9 g; KIDNEY_TOTAL (9 h): 1.8 g; LIVER (9 h): 7.7 g; A/G (9 h): 0.9; ALP (9 h): 1287.4 IU/L; ALT (9 h): 34.4 IU/L; AST (9 h): 70.4 IU/L; BUN (9 h): 7.4 mg/dL; CRE (9 h): 0.1 mg/dL; Ca (9 h): 10.4 mg/dL; Cl (9 h): 106.8 meq/L; DBIL (9 h): 0 mg/dL; GLC (9 h): 168.4 mg/dL; IP (9 h): 9.9 mg/dL; K (9 h): 3.7 meq/L; LDH (9 h): 116.4 IU/L; Na (9 h): 142.6 meq/L; PL (9 h): 118.4 mg/dL; RALB (9 h): 2.5 g/dL; TBIL (9 h): 0.07 mg/dL; TC (9 h): 70 mg/dL; TG (9 h): 29.8 mg/dL; TP (9 h): 5.2 g/dL; gamma-GTP (9 h): 1.2 IU/L; TERMINAL_BW (24 h): 215.3 g; APTT (24 h): 17.5 s; Bas (24 h): 0.2%; Eos (24 h): 1%; Fbg (24 h): 305 mg/dL; Hb (24 h): 13.5 g/dL; Ht (24 h): 41.4%; Lym (24 h): 78%; MCH (24 h): 20.9 pg; MCHC (24 h): 32.6%; MCV (24 h): 64.1 fL; Mono (24 h): 2.6%; Neu (24 h): 17.4%; PT (24 h): 12.7 s; Plat (24 h): 130.7 x10_4/uL; RBC (24 h): 646 x10_4/ul; Ret (24 h): 7%; WBC (24 h): 93.3 x10_2/uL; KIDNEY_L (24 h): 0.9 g; KIDNEY_R (24 h): 0.9 g; KIDNEY_TOTAL (24 h): 1.8 g; LIVER (24 h): 9.9 g; A/G (24 h): 0.9; ALP (24 h): 1728.6 IU/L; ALT (24 h): 44.2 IU/L; AST (24 h): 66.4 IU/L; BUN (24 h): 14.8 mg/dL; CRE (24 h): 0.2 mg/dL; Ca (24 h): 11.1 mg/dL; Cl (24 h): 106.4 meq/L; DBIL (24 h): 0.014 mg/dL; GLC (24 h): 180.4 mg/dL; IP (24 h): 7.4 mg/dL; K (24 h): 4.4 meq/L; LDH (24 h): 179.2 IU/L; Na (24 h): 141.6 meq/L; PL (24 h): 156.2 mg/dL; RALB (24 h): 2.7 g/dL; TBIL (24 h): 0.064 mg/dL; TC (24 h): 79.2 mg/dL; TG (24 h): 134.4 mg/dL; TP (24 h): 5.7 g/dL; gamma-GTP (24 h): 1 IU/L
